Results taken from PMC5882934, “Acute metabolic actions of the major polyphenols in chamomile: an in vitro mechanistic study on their potential to attenuate postprandial hyperglycaemia” (Scientific Reports, 2018).
Converted amounts (≈) assume the structure as drawn. Where two headings read alike, the source gives them in different places.

What was measured:
human α-amylase [1] = biological target: T1, human α-amylase (Homo sapiens, UniProt P0DUB6); assay: human α-amylase inhibition assay; assay type: biochemical; conditions: for maximum inhibition of human α-amylase: individual (poly)phenol, maximum value of dose response, p < 0.05; for Ki: Dixon plot, intercept = -Ki
T1 sequence (P0DUB6 16-511): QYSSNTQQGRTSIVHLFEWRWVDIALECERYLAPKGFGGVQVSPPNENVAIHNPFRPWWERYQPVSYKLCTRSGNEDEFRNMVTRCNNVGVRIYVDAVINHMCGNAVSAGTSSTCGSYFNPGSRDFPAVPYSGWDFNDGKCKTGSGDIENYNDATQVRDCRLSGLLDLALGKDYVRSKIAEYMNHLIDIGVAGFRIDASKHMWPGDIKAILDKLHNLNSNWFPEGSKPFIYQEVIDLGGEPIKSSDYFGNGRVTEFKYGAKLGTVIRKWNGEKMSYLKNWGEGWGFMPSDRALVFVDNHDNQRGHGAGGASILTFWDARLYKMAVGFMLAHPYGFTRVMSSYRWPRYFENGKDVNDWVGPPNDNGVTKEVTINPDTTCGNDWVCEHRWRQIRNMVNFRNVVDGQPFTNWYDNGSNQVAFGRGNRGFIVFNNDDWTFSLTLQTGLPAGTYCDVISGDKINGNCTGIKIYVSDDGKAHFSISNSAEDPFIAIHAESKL
Method: The human α-amylase and rat α-glucosidase inhibition assays were performed under optimised conditions as previously reported[3],[18],[52]. The ChE stock solution was dissolved in DMSO while the individual (poly)phenols were prepared in a water-EtOH solution (50:50, v/v).

Caco-2/TC7 cells [2] = assay: D-[U-14C]-glucose transport across Caco-2/TC7 cell monolayers in the presence of Na+; assay type: cell-based; conditions: for effect on D-[U-14C]-glucose transport: data not shown
Excerpt: (§1) Caco-2/TC7 cells transported 0.08 mmol of D-[U-^14C]-glucose from the apical to the basolateral compartment across the cell monolayers in the presence of Na^+, where the sugar transporter Na^+/glucose co-transporter 1 (SGLT1) is active, in addition to the facilitated transporters GLUT2 and GLUT5 (Fig. 6A-1). D-[U-^14C]-sucrose must first be hydrolysed by brush border sucrase and the resulting products, fructose and glucose, are transported into and across the cells.
(§2) Caco-2/TC7 cells were cultured and transport experiments performed as fully described before.

Caco-2/TC7 cells [3] = assay: D-[U-14C]-sucrose transport across Caco-2/TC7 cell monolayers; assay type: cell-based; conditions: data not shown
Excerpt: as §1, §2

Caco-2/TC7 cells [4] = assay: D-[U-14C]-fructose transport across Caco-2/TC7 cell monolayers; assay type: cell-based; conditions: data not shown
Excerpt: as §1, §2

[5] = enzymatic hydrolysis by digestive hydrolytic enzymes (hesperidinase, acetone rat intestinal extract); assay type: in vitro ADME
Method: Supplementary S3. Enzymatic hydrolysis of Kaempferol 3-O-glucoside (positive control) and (E)-MCAG. (A) Kaempferol 3-O-glucoside standard (300 µM). (B) Kaempferol standard (100 uM). (C) Kaempferol 3-O-glucoside hydrolysed with hesperidinase. (D) Kaempferol 3-O-glucoside hydrolysed with acetone rat intestinal extract. (E) Kaempferol 3-O-glucoside hydrolysed with pancreatin. (F) (E)-MCAG (500 µM) hydrolysed with hesperidinase. (G) (E)-MCAG (500 µM) hydrolysed hydrolysed with acetone rat intestinal extract. The enzymatic hydrolysis were conducted with 50 mg/mL of the respective enzyme for 3 h at 37 °C.

GLUT2 = biological target: T2, GLUT2 (Homo sapiens, UniProt P11168); assay: D-[U-14C]-glucose transport across Caco-2/TC7 monolayers under Na+-free conditions (only GLUT2 active); assay type: cell-based; conditions: for apparent increase in inhibitory activity under Na+-free conditions: versus Na+ present
T2 construct: endogenous in cells; host or cells: Caco-2/TC7
T2 sequence (P11168 1-524): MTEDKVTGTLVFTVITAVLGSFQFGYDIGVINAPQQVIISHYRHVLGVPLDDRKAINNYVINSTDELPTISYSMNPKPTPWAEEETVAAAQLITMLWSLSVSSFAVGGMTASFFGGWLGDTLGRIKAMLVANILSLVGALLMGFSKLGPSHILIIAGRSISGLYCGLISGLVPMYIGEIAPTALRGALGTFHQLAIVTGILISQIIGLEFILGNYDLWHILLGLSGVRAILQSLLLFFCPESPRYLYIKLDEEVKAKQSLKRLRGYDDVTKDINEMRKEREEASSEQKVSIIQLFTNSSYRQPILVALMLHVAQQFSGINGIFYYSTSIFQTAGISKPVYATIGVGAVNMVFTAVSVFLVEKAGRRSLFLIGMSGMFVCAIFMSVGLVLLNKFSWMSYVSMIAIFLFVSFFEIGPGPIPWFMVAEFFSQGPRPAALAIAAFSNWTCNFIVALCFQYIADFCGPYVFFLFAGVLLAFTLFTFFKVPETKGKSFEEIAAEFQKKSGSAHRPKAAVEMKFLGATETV
Excerpt: To dissect the mechanism of inhibition of glucose transport, we conducted D-[U-^14C]-glucose transport experiments under Na^+-free conditions where only GLUT2, and not SGLT1, is active. […] When tested in combination under Na^+-free conditions, apigenin 7-O-glucoside and apigenin (Fig. 6C-3) were responsible for ~80% of the inhibitory activity observed by the whole ChE (p < 0.05) (Fig. 6C-4).
Since the main inhibition we found was on GLUT2, we investigated the binding affinities of apigenin and apigenin 7-O-glucoside. […] This was also confirmed by functional assays where the rate of D-[U-^14C]-glucose transport under Na^+-free conditions was the same from apical to basolateral compartments and vice versa (Fig. 7B). Inhibition constants for the exofacial glucose transporter inhibitor 4,6-O-ethylidene glucose and the endofacial glucose transporter inhibitor cytochalasin B on basolateral to apical D-[U-^14C]-glucose transport were compared to those for apigenin and apigenin 7-O-glucoside (Fig. 7C–E). […] This comparison is made assuming that the position of GLUT2 is the same when facing the apical and the intracellular space, which seems to hold based on the rate of D-[U-^14C]-glucose transport across the monolayers in both directions.
as §2

[6] = solubility limit in enzyme assay; assay type: physicochemical
yeast α-glucosidase = conditions: cited from earlier work
GLUT1 [7] = tested on: GLUT1; parameters: method as in PMID 26238658; conditions: cited from earlier work
GLUT1 [8] = tested on: GLUT1; parameters: method as in PMID 24932809; conditions: cited from earlier work
maltase-glucoamylase = biological target: maltase-glucoamylase; parameters: method as in PMID 18681440; conditions: cited from earlier work
sucrase-isomaltase = biological target: sucrase-isomaltase; parameters: method as in PMID 18681440; conditions: cited from earlier work
human α-amylase [9] = biological target: T1, human α-amylase; parameters: method as in doi:10.1016/j.jff.2015.10.003; conditions: strong (poly)phenol inhibitors, arbitrarily defined; cited from earlier work
Caco-2/TC7 cells [10] = assay: conversion of apigenin 7-O-glucoside to apigenin by differentiated Caco-2/TC7 cells; assay type: in vitro ADME; conditions: 150 µM, 25 and 60 min
Method: Glycosylated (poly)phenols can be hydrolysed by luminal β-glucosidase enzymes, such as lactase phlorizin hydrolase[19],[20], present in the brush border of the enterocytes, resulting in the release of the aglycone. Therefore, we explored the possibility whether the inhibition observed by apigenin-7-O-glucoside was due to the presence of apigenin after enzymic hydrolysis. Caco-2/TC7 cells were incubated with 150 µM apigenin 7-O-glucoside for 25 and 60 min. In vitro conversion of apigenin 7-O-glucoside to apigenin in Caco2/TC7 cells was negligible (Supplementary S5) confirming that apigenin 7-O-glucoside can interact directly with GLUT2 transporter protein.
Cells were seeded at 2.4 × 10^5 cells/well on 6-well plates (Corning, Appleton Woods, UK) and cultured for 21–23 d at 37 °C as described above. Cells were exposed to 150 μM of apigenin 7-O-glucoside for 25 and 60 min. After the treatment the medium was collected and analysed by HPLC as detailed above.

[11] = tested on: rat intestinal α-glucosidase; parameters: method as in PMID 28422509; conditions: p-nitrophenyl-glucopyranoside substrate; cited from earlier work
[12] = parameters: method as in PMID 12086760, PMID 12876091; conditions: population with impaired glucose tolerance; cited from earlier work

COc1ccc(/C=C/C(=O)O)c(O[C@@H]2O[C@H](CO)[C@@H](O)[C@H](O)[C@H]2O)c1 [(E)-MCAG, (E)−2-β-D-Glucopyranosyloxy-4-methoxycinnamic acid]
maximum inhibition of human α-amylase (human α-amylase [1]): ~ 20%
effect on D-[U-14C]-glucose transport (Caco-2/TC7 cells [2]): no effect
effect on D-[U-14C]-sucrose transport (Caco-2/TC7 cells [3]): no effect
effect on D-[U-14C]-fructose transport (Caco-2/TC7 cells [4]): no effect
substrate for rat intestinal enzymes [5]: not a substrate
resistance to digestive hydrolytic enzymes ([5]; 500 µM, 50 mg/mL enzyme, 3 h at 37 °C): resistant

O=c1cc(-c2ccc(O)cc2)oc2cc(O)cc(O)c12 [apigenin]
fold increase in inhibitory activity on human α-amylase versus apigenin 7-O-glucoside (human α-amylase [1]): ~ 10 fold
Ki (human α-amylase [1]): 146 ± 39 µM
fold higher effect than apigenin 7-O-glucoside at equivalent concentrations (Caco-2/TC7 cells [2]; D-[U-14C]-glucose and D-[U-14C]-sucrose transport, apigenin 50 µM): 3 fold
fold lower inhibition of transport basolateral to apical versus apical to basolateral (GLUT2; Na+-free): 3 fold
apparent increase in inhibitory activity under Na+-free conditions (GLUT2): ~ 50%
solubility [6]: limited solubility prohibited testing at concentrations >50 µM
IC50 (yeast α-glucosidase): 22 µM
IC50 yeast α-glucosidase (yeast α-glucosidase): 25.5 µg/mL (≈ 94.4 µM)
inhibition of yeast α-glucosidase (yeast α-glucosidase; p-nitrophenyl-glucopyranoside substrate): did not inhibit
GLUT1 expression (GLUT1 [7]): lowered
GLUT1 expression (GLUT1 [8]): lowered

O=c1ccc2cc(O)c(O)cc2o1 [esculetin]
IC50 (maltase-glucoamylase): 534 µM
IC50 (sucrase-isomaltase): 72 µM

O=c1cc(-c2ccc(O)c(O)c2)oc2cc(O)cc(O)c12 [luteolin]
IC50 (human α-amylase [9]): < 100 µM

O=C(O[C@@H]1Cc2c(O)cc(O)cc2O[C@@H]1c1cc(O)c(O)c(O)c1)c1cc(O)c(O)c(O)c1 [EGCG]
IC50 (human α-amylase [9]): < 100 µM

O=c1cc(-c2ccc(O)cc2)oc2cc(O[C@@H]3O[C@H](CO)[C@@H](O)[C@H](O)[C@H]3O)cc(O)c12 [apigenin 7-O-glucoside, apigenin-7-O-glucoside]
Ki (human α-amylase [1]): 17 ± 4 µM
fold lower inhibition of human α-amylase than apigenin (human α-amylase [1]; in vitro results): ~ 10 fold
fold lower inhibition of transport basolateral to apical versus apical to basolateral (GLUT2; Na+-free): 3 fold
apparent increase in inhibitory activity under Na+-free conditions (GLUT2): ~ 50%
in vitro conversion to apigenin (Caco-2/TC7 cells [10]): negligible
IC50 yeast α-glucosidase (yeast α-glucosidase): 29.7 µg/mL (≈ 68.7 µM)
inhibition of rat intestinal α-glucosidase activity [11]: inhibited

CC1OC[C@H]2O[C@H](O)[C@H](O)[C@@H](O)[C@@H]2O1 (some centres unmarked) [4,6-ethylidine glucose, 4,6-O-ethylidene glucose, reference compound]
fold lower inhibition of transport basolateral to apical versus apical to basolateral (GLUT2; Na+-free): 3 fold
IC50 (GLUT2; Na+-free, apical to basolateral, read-out: a → b IC50): 15000 µM

O=c1c(O)c(-c2ccc(O)c(O)c2)oc2cc(O)cc(O)c12 [quercetin]
IC50 (human α-amylase [9]): < 100 µM
IC50 (maltase-glucoamylase): 216 µM
IC50 (sucrase-isomaltase): 71 µM

C[C@H]1O[C@H](O[C@H]2[C@H](O)[C@@H](O)[C@@H](O[C@H]3[C@H](O)[C@@H](O)C(O)O[C@@H]3CO)O[C@@H]2CO)[C@H](O)[C@@H](O)[C@@H]1N[C@H]1C=C(CO)[C@@H](O)[C@H](O)[C@H]1O (some centres unmarked) [acarbose]
reduction of the risk of cardiovascular events [12]: 49%
reduction of the risk of type 2 diabetes [12]: 25%

COc1ccc(/C=C\C(=O)O)c(OC2O[C@H](CO)[C@@H](O)[C@H](O)[C@H]2O)c1 (stereo partly drawn) [(Z)-MCAG, (Z)-2-D-Glucopyranosyloxy-4-methoxycinnamic acid]
maximum inhibition of human α-amylase (human α-amylase [1]): ~ 25%
effect on D-[U-14C]-glucose transport (Caco-2/TC7 cells [2]): no effect
effect on D-[U-14C]-sucrose transport (Caco-2/TC7 cells [3]): no effect
effect on D-[U-14C]-fructose transport (Caco-2/TC7 cells [4]): no effect

C=C1[C@@H](C)[C@H]2[C@H](Cc3ccccc3)NC(=O)[C@]23OC(=O)/C=C/[C@H](O)CCC[C@@H](C)C/C=C/[C@H]3[C@@H]1O [Cytochalasin B, cytochalasin B, reference compound]
IC50 (GLUT2; a → b IC50, Na+-free, apical to basolateral): 2.3 µM
IC50 (GLUT2; b → a IC50, Na+-free, basolateral to apical): 7.6 µM
